Where two headings read alike, the source gives them in different places.
Biological target: T1, recombinant human NK3 receptor (Homo sapiens, UniProt P29371)
T1 construct: expressed in transfected cells; host or cells: HEK293 cells, transient expression; membranes
T1 sequence (P29371 1-465): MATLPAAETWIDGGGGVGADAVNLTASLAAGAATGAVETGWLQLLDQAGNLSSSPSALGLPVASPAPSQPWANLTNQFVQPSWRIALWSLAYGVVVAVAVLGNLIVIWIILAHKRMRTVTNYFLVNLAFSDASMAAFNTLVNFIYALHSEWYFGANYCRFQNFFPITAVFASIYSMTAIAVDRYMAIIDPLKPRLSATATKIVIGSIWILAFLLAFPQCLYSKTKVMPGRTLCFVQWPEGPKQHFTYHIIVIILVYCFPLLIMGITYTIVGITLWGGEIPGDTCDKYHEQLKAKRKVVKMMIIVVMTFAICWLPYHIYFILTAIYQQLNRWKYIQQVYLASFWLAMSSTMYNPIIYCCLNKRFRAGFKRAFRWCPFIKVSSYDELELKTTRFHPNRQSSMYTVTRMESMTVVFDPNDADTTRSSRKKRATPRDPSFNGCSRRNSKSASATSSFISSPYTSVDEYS
Assay: [3H]SR142801 competition binding assay

| SMILES | Ki | Ki (hNK-3 receptor affinity, membranes from HEK293 cells transiently expressing recombinant human NK3 receptor, [3H]SR142801, Cheng-Prussoff, read-out: Data Ki) |
| --- | --- | --- |
| CN(C(=O)O[C@H]1C[C@H]2CC[C@@H]1C2)[C@H]1CN(C(=O)C2CCN(C(=O)C3(C)CC3)CC2)C[C@@H]1c1ccc(Cl)c(Cl)c1 (mixture of isomers) [Example 68, {(3R,4S)-4-(3,4-Dichloro-phenyl)-1-[1-(1-methyl-cyclopropanecarbonyl)-piperidine-4-carbonyl]-pyrrolidin-3-yl}-methyl-carbamic acid (1R,2S,4S)-bicyclo[2.2.1]hept-2-yl ester and {(3S,4R)-4-(3,4-Dichloro-phenyl)-1-[1-(1-methyl-cyclopropanecarbonyl)-piperidine-4-carbonyl]-pyrrolidin-3-yl}-methyl-carbamic acid (1R,2S,4S)-bicyclo[2.2.1]hept-2-yl ester] | 62.6 nM |  |
| CN(C(=O)O[C@@H]1C[C@H]2CC[C@@H]1C2)[C@H]1CN(C(=O)C2CCN(C(=O)C3(C)CC3)CC2)C[C@@H]1c1ccc(Cl)c(Cl)c1 (mixture of isomers) [Example 69, {(3R,4S)-4-(3,4-Dichloro-phenyl)-1-[1-(1-methyl-cyclopropanecarbonyl)-piperidine-4-carbonyl]-pyrrolidin-3-yl}-methyl-carbamic acid (1R,2R,4S)-bicyclo[2.2.1]hept-2-yl ester and {(3S,4R)-4-(3,4-Dichloro-phenyl)-1-[1-(1-methyl-cyclopropanecarbonyl)-piperidine-4-carbonyl]-pyrrolidin-3-yl}-methyl-carbamic acid (1R,2R,4S)-bicyclo[2.2.1]hept-2-yl ester] | 7.6 nM |  |
| CN(C(=O)Oc1ccc(F)cc1)[C@H]1CN(C(=O)C2CCN(C(=O)C3(C)CC3)CC2)C[C@@H]1c1ccc(Cl)c(Cl)c1 (racemic) [Example 2, rac-{(3R,4S)-4-(3,4-Dichloro-phenyl)-1-[1-(1-methyl-cyclopropanecarbonyl)-piperidine-4-carbonyl]-pyrrolidin-3-yl}-methyl-carbamic acid 4-fluoro-phenyl ester] | 0.4 nM |  |
| CN(C(=O)Oc1ccc(F)cc1)[C@H]1CN(C(=O)C2CCN(CC3CC3)CC2)C[C@@H]1c1ccc(Cl)c(Cl)c1 (racemic) [Example 4, rac-[(3R,4S)-1-(1-Cyclopropylmethyl-piperidine-4-carbonyl)-4-(3,4-dichloro-phenyl)-pyrrolidin-3-yl]-methyl-carbamic acid 4-fluoro-phenyl ester] | 1.8 nM |  |
| CN(C(=O)Oc1ccccc1)[C@H]1CN(C(=O)C2CCN(CC3CC3)CC2)C[C@@H]1c1ccc(Cl)c(Cl)c1 (racemic) [Example 7, rac-[(3R,4S)-1-(1-Cyclopropylmethyl-piperidine-4-carbonyl)-4-(3,4-dichloro-phenyl)-pyrrolidin-3-yl]-methyl-carbamic acid phenyl ester] | 9.6 nM |  |
| Cc1ccc(OC(=O)N(C)[C@H]2CN(C(=O)C3CCN(CC4CC4)CC3)C[C@@H]2c2ccc(Cl)c(Cl)c2)cc1 (racemic) [Example 8, rac-[(3R,4S)-1-(1-Cyclopropylmethyl-piperidine-4-carbonyl)-4-(3,4-dichloro-phenyl)-pyrrolidin-3-yl]-methyl-carbamic acid p-tolyl ester] | 4 nM |  |
| COc1ccc(OC(=O)N(C)[C@H]2CN(C(=O)C3CCN(CC4CC4)CC3)C[C@@H]2c2ccc(Cl)c(Cl)c2)cc1 (racemic) [Example 9, rac-[(3R,4S)-1-(1-Cyclopropylmethyl-piperidine-4-carbonyl)-4-(3,4-dichloro-phenyl)-pyrrolidin-3-yl]-methyl-carbamic acid 4-methoxy-phenyl ester] | 13.6 nM |  |
| CN(C(=O)Oc1ccc(Cl)cc1)[C@H]1CN(C(=O)C2CCN(CC3CC3)CC2)C[C@@H]1c1ccc(Cl)c(Cl)c1 (racemic) [Example 10, rac-[(3R,4S)-1-(1-Cyclopropylmethyl-piperidine-4-carbonyl)-4-(3,4-dichloro-phenyl)-pyrrolidin-3-yl]-methyl-carbamic acid 4-chloro-phenyl ester] | 1.5 nM |  |
| CCCCOC(=O)N(C)[C@H]1CN(C(=O)C2CCN(CC3CC3)CC2)C[C@@H]1c1ccc(Cl)c(Cl)c1 (racemic) [Example 11, rac-[(3R,4S)-1-(1-Cyclopropylmethyl-piperidine-4-carbonyl)-4-(3,4-dichloro-phenyl)-pyrrolidin-3-yl]-methyl-carbamic acid butyl ester] | 27.1 nM |  |
| CN(C(=O)Oc1ccc(Cl)cc1)[C@H]1CN(C(=O)C2CCN(C(=O)C3(C)CC3)CC2)C[C@@H]1c1ccc(Cl)c(Cl)c1 (racemic) [Example 12, rac-{(3R,4S)-4-(3,4-Dichloro-phenyl)-1-[1-(1-methyl-cyclopropanecarbonyl)-piperidine-4-carbonyl]-pyrrolidin-3-yl}-methyl-carbamic acid 4-chloro-phenyl ester] | 0.6 nM |  |
| CN(C(=O)Oc1ccccc1)[C@H]1CN(C(=O)C2CCN(C(=O)C3(C)CC3)CC2)C[C@@H]1c1ccc(Cl)c(Cl)c1 (racemic) [Example 13, rac-{(3R,4S)-4-(3,4-Dichloro-phenyl)-1-[1-(1-methyl-cyclopropanecarbonyl)-piperidine-4-carbonyl]-pyrrolidin-3-yl}-methyl-carbamic acid phenyl ester] | 2 nM |  |
| Cc1ccc(OC(=O)N(C)[C@H]2CN(C(=O)C3CCN(C(=O)C4(C)CC4)CC3)C[C@@H]2c2ccc(Cl)c(Cl)c2)cc1 (racemic) [Example 14, rac-{(3R,4S)-4-(3,4-Dichloro-phenyl)-1-[1-(1-methyl-cyclopropanecarbonyl)-piperidine-4-carbonyl]-pyrrolidin-3-yl}-methyl-carbamic acid p-tolyl ester] | 1.2 nM |  |
| COc1ccc(OC(=O)N(C)[C@H]2CN(C(=O)C3CCN(C(=O)C4(C)CC4)CC3)C[C@@H]2c2ccc(Cl)c(Cl)c2)cc1 (racemic) [Example 15, rac-{(3R,4S)-4-(3,4-Dichloro-phenyl)-1-[1-(1-methyl-cyclopropanecarbonyl)-piperidine-4-carbonyl]-pyrrolidin-3-yl}-methyl-carbamic acid p-methoxyphenyl ester] | 2.5 nM |  |
| CN(C(=O)OCC(C)(C)C)[C@H]1CN(C(=O)C2CCN(C(=O)C3(C)CC3)CC2)C[C@@H]1c1ccc(Cl)c(Cl)c1 (racemic) [Example 22, rac-{(3R,4S)-4-(3,4-Dichloro-phenyl)-1-[1-(1-methyl-cyclopropanecarbonyl)-piperidine-4-carbonyl]-pyrrolidin-3-yl}-methyl-carbamic acid 2,2-dimethyl-propyl ester] | 16.9 nM |  |
| CN(C(=O)OCC1CC1)[C@H]1CN(C(=O)C2CCN(C(=O)C3(C)CC3)CC2)C[C@@H]1c1ccc(Cl)c(Cl)c1 (racemic) [Example 24, rac-{(3R,4S)-4-(3,4-Dichloro-phenyl)-1-[1-(1-methyl-cyclopropanecarbonyl)-piperidine-4-carbonyl]-pyrrolidin-3-yl}-methyl-carbamic acid cyclopropylmethyl ester] | 33.5 nM |  |
| CN(C(=O)OCCC1CC1)[C@H]1CN(C(=O)C2CCN(C(=O)C3(C)CC3)CC2)C[C@@H]1c1ccc(Cl)c(Cl)c1 (racemic) [Example 25, rac-{(3R,4S)-4-(3,4-Dichloro-phenyl)-1-[1-(1-methyl-cyclopropanecarbonyl)-piperidine-4-arbonyl]-pyrrolidin-3-yl}-methyl-carbamic acid 2-cyclopropyl-ethyl ester] |  | 5.4 nM |
